Converted amounts (≈) assume the structure as drawn. Bounds are passed on as bounds.

Holding throughout (type): cell-based
Assay [1] has as its system Pseudomonas aeruginosa 104. The assay can be described thus: Minimum Inhibitory Concentration, Pseudomonas aeruginosa 104. To be noted: Pseudomonas aeruginosa 104; for MIC: read-out: Minimum Inhibitory Concentration. The procedure:
(§1) anti-microbial activity tests were carried out on the compounds obtained in the Examples.

The test system of a further assay is Proteus vulgaris HX 19. The assay can be described thus: Minimum Inhibitory Concentration, Proteus vulgaris HX 19. The following applies: Proteus vulgaris HX 19; for MIC: HX19, read-out: Minimum Inhibitory Concentration. The protocol: as §1
Assay [2] has as its system Klebsiella pneumoniae 602. The assay is described as follows: Minimum Inhibitory Concentration, Klebsiella pneumoniae 602. To be noted: for MIC: Klebsiella pneumoniae, 602, Klebsiella pneumoniae 602, read-out: Minimum Inhibitory Concentration. The protocol:
as §1

The next assay has as its system Escherichia coli NIHJ. The assay can be described thus: Minimum Inhibitory Concentration, Escherichia coli NIHJ. To be noted: Escherichia coli NIHJ; for MIC: read-out: Minimum Inhibitory Concentration. The protocol:
as §1

Assay [3] relates to Enterobacter aerogeneus No. 75. The assay is described as follows: Minimum Inhibitory Concentration, Enterobacter aerogeneus No. 75. The following applies: Enterobacter aerogeneus No. 75; for MIC: read-out: Minimum Inhibitory Concentration. The protocol: as §1
Another assay relates to Serratia No. 72. The assay can be described thus: Minimum Inhibitory Concentration, Serratia No. 72. The protocol: as §1
The subject of assay [4] is Staphylococcus aureus 209 P. The assay can be described thus: Minimum Inhibitory Concentration, Staphylococcus aureus 209 P. To be noted: Staphylococcus aureus 209 P; for MIC: read-out: Minimum Inhibitory Concentration. The protocol: as §1
Assay [5] has as its system Staphylococcus aureus FS 289. The assay is described as follows: Minimum Inhibitory Concentration, Staphylococcus aureus FS 289. The following applies: Staphylococcus aureus FS 289, strain resistant to penicillin; for MIC: FS289, read-out: Minimum Inhibitory Concentration. The protocol: as §1
*Staphylococcus aureus FS 289: strain resistant to penicillin

`Cn1nnc(SCC2=C(C(=O)O)N3C(=O)C(NC(=O)C(NC(=O)c4cnc5cccnc5c4O)c4ccc(N)cc4)C3SC2)n1` (centres unmarked) [Example 82]: the MIC in assay [1] was determined as 3.13 µg/mL (≈ 4.83 µM); in the assay on Proteus vulgaris HX 19 it was 0.1 µg/mL (≈ 0.154 µM); in assay [2], 1.56 µg/mL (≈ 2.4 µM); in the assay with Escherichia coli NIHJ it was 3.13 µg/mL (≈ 4.83 µM); in assay [3], 3.13 µg/mL (≈ 4.83 µM); against Serratia No. 72, 12.5 µg/mL (≈ 19.3 µM). Also, the MIC in assay [4] worked out at 0.78 µg/mL (≈ 1.2 µM); in assay [5] it was 6.25 µg/mL (≈ 9.63 µM).

With `Nc1ccc(C(NC(=O)c2cnccc2O)C(=O)NC2C(=O)N3C(C(=O)O)=C(CSc4nnc(CO)s4)CSC23)cc1` (centres unmarked) [Example 83], the MIC in assay [1] turned out to be 6.25 µg/mL (≈ 9.93 µM); in the assay on Proteus vulgaris HX 19 it was 0.2 µg/mL (≈ 0.318 µM); in assay [2] it was 6.25 µg/mL (≈ 9.93 µM); with Escherichia coli NIHJ, 6.25 µg/mL (≈ 9.93 µM); in assay [3], 12.5 µg/mL (≈ 19.9 µM); in the assay with Serratia No. 72, 50 µg/mL (≈ 79.4 µM). In addition, the results for the MIC in assay [4] and in assay [5] were 0.39 µg/mL (≈ 0.619 µM) and 6.25 µg/mL (≈ 9.93 µM), respectively.

As to `Nc1cccc(C(NC(=O)c2cnccc2O)C(=O)NC2C(=O)N3C(C(=O)O)=C(CSc4nnc(CO)s4)CSC23)c1` (centres unmarked) [Example 84], the “Minimum Inhibitory Concentration” value in assay [1] was 6.25 µg/mL; in the assay with Proteus vulgaris HX 19, 0.2 µg/mL; in assay [2] (Klebsiella pneumoniae 602), 3.13 µg/mL; in the assay on Escherichia coli NIHJ, 6.25 µg/mL; in assay [3], 12.5 µg/mL; in the assay with Serratia No. 72, 50 µg/mL. Further, the “Minimum Inhibitory Concentration” value in assay [4] amounted to 0.39 µg/mL; in assay [5], 6.25 µg/mL.

Consider `Nc1cccc(C(NC(=O)c2cnccc2O)C(=O)NC2C(=O)N3C(C(=O)O)=C(CSc4ccc(O)nn4)CSC23)c1` (centres unmarked) [Example 85], for which the MIC was found to be 6.25 µg/mL (≈ 10.3 µM) in assay [1]; 0.2 µg/mL (≈ 0.328 µM) in the assay on Proteus vulgaris HX 19; 3.13 µg/mL (≈ 5.13 µM) in assay [2]; 6.25 µg/mL (≈ 10.3 µM) in the assay on Escherichia coli NIHJ; 25 µg/mL (≈ 41 µM) in assay [3]; 100 µg/mL (≈ 164 µM) against Serratia No. 72. Also, the MIC stood at 0.39 µg/mL (≈ 0.64 µM) in assay [4] and 6.25 µg/mL (≈ 10.3 µM) in assay [5].

On to `Nc1cccc(C(NC(=O)c2ccnnc2O)C(=O)NC2C(=O)N3C(C(=O)O)=C(CSc4nnc(CO)s4)CSC23)c1` (centres unmarked) [Example 86], for which the MIC in assay [1] amounted to 12.5 µg/mL (≈ 19.8 µM); with Proteus vulgaris HX 19 it was 0.39 µg/mL (≈ 0.618 µM); in assay [2], 6.25 µg/mL (≈ 9.91 µM); with Escherichia coli NIHJ, 12.5 µg/mL (≈ 19.8 µM); in assay [3], 12.5 µg/mL (≈ 19.8 µM); against Serratia No. 72, 50 µg/mL (≈ 79.3 µM). Moreover, the MIC amounted to 0.78 µg/mL (≈ 1.24 µM) in assay [4] and 6.25 µg/mL (≈ 9.91 µM) in assay [5].

With `Nc1cccc(C(NC(=O)c2ccnnc2O)C(=O)NC2C(=O)N3C(C(=O)O)=C(CSc4ccc(O)nn4)CSC23)c1` (centres unmarked) [Example 87], the MIC in assay [1] amounted to 12.5 µg/mL (≈ 20.5 µM); in the assay on Proteus vulgaris HX 19, 0.78 µg/mL (≈ 1.28 µM); in assay [2] it was 6.25 µg/mL (≈ 10.2 µM); in the assay with Escherichia coli NIHJ, 12.5 µg/mL (≈ 20.5 µM); in assay [3] it was 12.5 µg/mL (≈ 20.5 µM); against Serratia No. 72 it was 50 µg/mL (≈ 81.9 µM). The MIC in assay [4] came to 0.78 µg/mL (≈ 1.28 µM); in assay [5], 6.25 µg/mL (≈ 10.2 µM).

Consider `Cn1nnnc1SCC1=C(C(=O)O)N2C(=O)C(NC(=O)C(NC(=O)c3cnccc3O)c3ccc(CO)cc3)C2SC1` (centres unmarked) [Example 91], for which the MIC was determined as 12.5 µg/mL (≈ 20.4 µM) in assay [1]; 0.39 µg/mL (≈ 0.637 µM) in the assay on Proteus vulgaris HX 19; 12.5 µg/mL (≈ 20.4 µM) in assay [2]; 12.5 µg/mL (≈ 20.4 µM) in the assay on Escherichia coli NIHJ; 25 µg/mL (≈ 40.8 µM) in assay [3]; 50 µg/mL (≈ 81.6 µM) against Serratia No. 72. Also, the MIC was 0.78 µg/mL (≈ 1.27 µM) in assay [4] and 6.25 µg/mL (≈ 10.2 µM) in assay [5].

On to `CC(=O)OCC1=C(C(=O)O)N2C(=O)C(NC(=O)C(NC(=O)c3ccnnc3O)c3ccc(CO)cc3)C2SC1` (centres unmarked) [Example 92], for which the MIC is 12.5 µg/mL (≈ 22.4 µM) in assay [1]; 0.39 µg/mL (≈ 0.7 µM) in the assay on Proteus vulgaris HX 19; 12.5 µg/mL (≈ 22.4 µM) in assay [2]; 25 µg/mL (≈ 44.8 µM) in the assay with Escherichia coli NIHJ; 25 µg/mL (≈ 44.8 µM) in assay [3]; greater than 200 µg/mL with Serratia No. 72. In addition, the MIC stood at 0.78 µg/mL (≈ 1.4 µM) in assay [4] and 6.25 µg/mL (≈ 11.2 µM) in assay [5].

For the compound `Cc1nnc(SCC2=C(C(=O)O)N3C(=O)C(NC(=O)C(NC(=O)c4ccnnc4O)c4ccc(CO)cc4)C3SC2)s1` (centres unmarked) [Example 93], the MIC in assay [1] came out at 12.5 µg/mL (≈ 19.9 µM); in the assay with Proteus vulgaris HX 19, 0.2 µg/mL (≈ 0.318 µM); in assay [2], 12.5 µg/mL (≈ 19.9 µM); in the assay on Escherichia coli NIHJ, 12.5 µg/mL (≈ 19.9 µM); in assay [3] it was 25 µg/mL (≈ 39.7 µM); against Serratia No. 72 it was 50 µg/mL (≈ 79.4 µM). The MIC in assay [4] worked out at 0.78 µg/mL (≈ 1.24 µM); in assay [5] it was 12.5 µg/mL (≈ 19.9 µM).

In the case of `Cn1nnnc1SCC1=C(C(=O)O)N2C(=O)C(NC(=O)C(NC(=O)c3cncnc3O)c3ccc(CO)cc3)C2SC1` (centres unmarked) [Example 94], the MIC was 25 µg/mL (≈ 40.7 µM) in assay [1]; 0.78 µg/mL (≈ 1.27 µM) with Proteus vulgaris HX 19; 12.5 µg/mL (≈ 20.4 µM) in assay [2]; 25 µg/mL (≈ 40.7 µM) in the assay with Escherichia coli NIHJ; 25 µg/mL (≈ 40.7 µM) in assay [3]; 50 µg/mL (≈ 81.5 µM) against Serratia No. 72. Besides, the MIC in assay [4] turned out to be 0.78 µg/mL (≈ 1.27 µM); in assay [5], 12.5 µg/mL (≈ 20.4 µM).

Source of the values: patent US4156724A, “N-acylamino-alpha-arylacetamido cephalosporins and antibacterial compositions and methods containing them” (Sumitomo Chemical Company, Limited, priority 1974, dated 1979).
